From patent publication US7718190B2, “Self forming, thermodynamically stable liposomes and their applications” (priority 2000, dated 2010)

Experiments:
[1] = Dissolution of compounds in PEG-12 Glyceryl Dioleate; type: physicochemical; conditions: for Dissolution in PEG-12 Glyceryl Dioleate (observation): before addition of water
Protocol: It will be appreciated that, while liposomes form spontaneously at the temperature of formation, cooling of liposomes after formation results in liposomes in trapped kinetic states. To minimize distortions in liposome structure upon such cooling, sterols such as cholesterol may be mixed with the lipid before liposome formation. It has been observed that cholesterol may be dissolved in PEG-12 GDO at up to about 10 percent by weight.
Methotrexate (Sigma) was dissolved in PEG-12 Glyceryl Dioleate and gently mixed for about 5 minutes. […] Deionized water was slowly added to the solution and gently mixed. The resultant mixture was a yellow, opaque solution.
Tretinoin (all-trans retinoic acid), 6 mg, was dissolved in 500 ul of PEG-12 Glyceryl Dioleate. […] Distilled water, 4.5 ml, was added to the mixture and gently mixed. This yielded a concentration of […]. […] This solution can easily be incorporated into a cream, gel or lotion dosage form.

[2] = Spontaneous liposome formation of single lipids mixed with aqueous solution; type: physicochemical
Protocol: Lipids were tested at 2 weight percent in aqueous solution. Note that GDL means glycerol dilaurate, GDO means glycerol dioleate, GDM means glycerol dimyristate, GDP means glycerol dipalmitate, and GDS means glycerol distearate. For each lipid, the number after “PEG” indicates the numbers of C2H4O subunits in the PEG chain. The unsaturated dioleate lipids have similar packing parameters to the saturated dimyristate lipids.
Single lipids were tested for their ability to spontaneously form liposomes when mixed with an aqueous solution. PEG-12 GDO was obtained from Global 7 (New Jersey). All other lipids were synthesized for the experiment. For each experiment, water and lipid were separately equilibrated at the appropriate temperature. Two weight percent lipid was added to the aqueous solution, and the solution was analyzed for the presence of liposomes by optical light microscopy, cryo TEM, freeze fracture TEM, or hot stage microscopy.

Compound: CN(Cc1cnc2nc(N)nc(N)c2n1)c1ccc(C(=O)N[C@@H](CCC(=O)O)C(=O)O)cc1 [Methotrexate]
- Dissolution in PEG-12 Glyceryl Dioleate (observation) [1]: clear solution

Compound: CC1=C(/C=C/C(C)=C/C=C/C(C)=C/C(=O)O)C(C)(C)CCC1 [Tretinoin]
- Dissolution in PEG-12 Glyceryl Dioleate (observation) [1]: Dissolution was complete

Compound: CC(C)CCC[C@@H](C)[C@H]1CC[C@H]2[C@@H]3CC=C4C[C@@H](O)CC[C@]4(C)[C@H]3CC[C@]12C [cholesterol]
- Amount dissolved in PEG-12 GDO ([1]; in PEG-12 GDO): up to 10 percent by weight

Compound: PEG-12 Glyceryl Dioleate [PEG-12 GDO]
- Spontaneous Liposomes at 20° C. ([2]; 2 weight percent lipid in aqueous solution, 20° C.): YES
- Spontaneous Liposomes at 37° C. ([2]; 2 weight percent lipid in aqueous solution, 37° C.): YES
- Spontaneous Liposomes at 60° C. ([2]; 2 weight percent lipid in aqueous solution, 60° C.): YES
- Spontaneous liposome formation ([2]; all temperatures tested (20, 37, 60° C.)): spontaneously forms liposomes at all temperatures tested
